Data on 1 substance can be found in patent publication US6475993B2 (Universite Laval, priority 1998, dated 2002).

One data set deals with dystrophin. As to the kind of experiment: Dystrophin immunohistochemistry in skeletal muscle and heart of mdx mice treated with gentamicin. The class given is in vivo. The following applies: for Dystrophin staining intensity: 7 days. On the procedure: All mice were then sacrificed, their skeletal muscle and their heart were frozen and cryostat sectioned. The presence of dystrophin in these sections was investigated by immunohistochemistry. […] In the untreated mdx muscles, dystrophin immunostaining was observed only in a few revertant fibers (Hoffman et al. 1990). […] The dystrophin staining was less intense in the muscles of mice treated with 1 mg/kg. […] The duration of treatment may vary.

The subject of the next data set is CFTR protein. The settings on record: gentamicin 200 mg/mL (so in the source), incubation 18 to 24 hours; Howard et al. 1996; cited from earlier work.
A further data set deals with mdx mice. The experiment in a line: Toxicity signs in mdx mice treated with gentamicin. It is filed as in vivo. An excerpt:
Further, any mean by which gentamicin or gentamicin-like or derived molecules can be driven more directly to the site of action is within the scope of this invention.

Turning to gentamicin, the “Success of daily treatments of other route or duration” value in the data set with dystrophin (Sub-cutaneous or intra-muscular daily treatments of 7 to 14 days or longer) is listed as “equivalently successful”. Moreover, the Dystrophin staining intensity result in the data set with dystrophin (mdx mice, I.M. 5 mg/day gentamicin, some muscles) is given as “as intense as that observed in the normal mouse muscles”; in the data set with dystrophin (mdx mice, I.M. gentamicin, printed 1 mg/kg) it was “less intense”. Besides, the “Presence of dystrophin by immunohistochemistry” value in the data set on dystrophin (mdx mice, I.M. gentamicin 1 mg/day or 5 mg/day during 7 days, skeletal muscle and heart cryostat sections) is “detected by immunohistochemistry on all muscle fibers and all heart muscle cells”. Besides, the “Suppression of premature stop codon in vivo” value in the data set with dystrophin (mdx mice, dose of 8 to 40 mg per Kg of body weight per day) is given as “successfully suppressed the premature stop codon”. Moreover, the “Suppression of premature stop mutation in CFTR gene (full-length CFTR protein)” value in the data set on CFTR protein is reported as “permitted to suppress the premature stop mutation”. Also, in the data set on mdx mice, the Toxicity signs entry is “No toxicity signs appeared”.
